# Values joined by “and” are separate entries in the source; they are usually repeats but may differ in a detail not shown here. Equal values may be shown once. Read-outs that look alike come from different tables or passages of the source.
# Assays:
# [1] = test system: OAT3; details: in vitro; ref data on file at Furiex; cited from earlier work
# [2] = Rhesus; IV 3.2 mg/kg; ref Furiex Studies DD7393, FK10138, FK10141, and FK10142; cited from earlier work
# [3] = test system: OCT2; details: in vitro; ref data on file at Furiex; cited from earlier work
# [4] = test system: BCRP; details: in vitro; ref data on file at Furiex; cited from earlier work
# [5] = Rat; IV 10 mg/kg; ref Furiex Studies DD7393, FK10138, FK10141, and FK10142; cited from earlier work
# [6] = test system: P-gp; details: in vitro; ref data on file at Furiex; cited from earlier work
# [7] = test system: OAT1; details: in vitro; ref data on file at Furiex; cited from earlier work
# [8] = Allometric PK scaling of CLTOT to human
# [9] = test system: OCT2; details: in vitro; ref data on file at Furiex; cited from earlier work; remark: listed apart in the source
# [10] = test system: Caco2 cell-line; details: ref data on file at Furiex; cited from earlier work
# [11] = test system: OATP1B3; details: in vitro; ref data on file at Furiex; cited from earlier work
# [12] = test system: OATP1B3; details: in vitro; ref data on file at Furiex; cited from earlier work; remark: listed apart in the source
# [13] = test system: MRP2; details: in vitro; ref data on file at Furiex; cited from earlier work
# [14] = test system: MRP2; details: in vitro; ref data on file at Furiex; cited from earlier work; remark: listed apart in the source
# [15] = test system: CYP-450s; details: in vitro; ref data on file at Furiex; cited from earlier work
# [16] = Safety and tolerability; assay type: in vivo, human
# [17] = Semiphysiological integrated PK/ADME model; parameters: species or system human; details: for clearance: oral
# [18] = test system: OAT1; details: in vitro; ref data on file at Furiex; cited from earlier work; remark: listed apart in the source
# [19] = test system: BSEP; details: in vitro; ref data on file at Furiex; cited from earlier work
# [20] = Cynos; IV 10 mg/kg; ref Furiex Studies DD7393, FK10138, FK10141, and FK10142; cited from earlier work
# [21] = assay type: in vivo, human; details: for AUC(0–inf), Ratio (%) of Geometric LS Means: all profiles with estimable elimination rates; for CL renal: plasma and urine, CLr; for Vd/F: Vz/F
# [22] = in vitro or in vivo, except slow formation of a glucuronide found in human urine after 1,000 mg oral dose; ref data on file at Furiex; cited from earlier work
# [23] = test system: OCT1; details: in vitro; ref data on file at Furiex; cited from earlier work
# [24] = Dog; IV 2 mg/kg; ref Furiex Studies DD7393, FK10138, FK10141, and FK10142; cited from earlier work
# [25] = plasma protein binding; model input, source not stated; cited from earlier work
# [26] = test system: BCRP; details: in vitro; ref data on file at Furiex; cited from earlier work; remark: listed apart in the source
# [27] = ref data on file at Furiex; cited from earlier work
# [28] = test system: OCT1; details: in vitro; ref data on file at Furiex; cited from earlier work; remark: listed apart in the source
# [29] = humans; single 300 mg radiolabeled dose; ref data on file at Furiex; cited from earlier work
# [30] = human, reference case without inhibitor, estimated
# [31] = in the presence of cyclosporine
# [32] = both, human, plasma, oral, eluxadoline 100 mg plus cyclosporine 600 mg, arithmetic mean (CV), n = 19
# [33] = both, human, plasma, oral, eluxadoline 100 mg plus probenecid 500 mg, arithmetic mean (CV), n = 20
# [34] = coadministered with probenecid vs eluxadoline alone
smiles,measurement,setting,value
COc1ccc(CN(C(=O)[C@@H](N)Cc2c(C)cc(C(N)=O)cc2C)[C@@H](C)c2ncc(-c3ccccc3)[nH]2)cc1C(=O)O [eluxadoline],inhibition of OAT3-mediated transport of probe substrates,[1],did not inhibit
same,CLtot,[2],28.5 mL/min/kg
same,t½,[2],0.65 h
same,inhibition of OCT2-mediated transport of probe substrates,[3],did not inhibit
same,inhibition of BCRP-mediated transport of probe substrates,[4],did not inhibit
same,CLtot,[5],44.4 mL/min/kg
same,t½,[5],0.8 h
same,transport by P-gp,[6],not to be transported
same,transport by OAT1,[7],not to be transported
same,clearance,[8],12.6 mL/min/kg and 949 mL/min
same,transport by OCT2,[9],not to be transported
same,Caco2 cell-line permeability,[10],poor
same,inhibition of OATP1B3-mediated transport of probe substrates,[11],did not inhibit
same,transport by OATP1B3,[12],not to be transported
same,inhibition of MRP2-mediated transport of probe substrates,[13],did not inhibit
same,MRP2-dependent vesicular accumulation,[14],substrate of MRP2
same,inhibition or induction of CYP-450s,[15],no inhibition or induction
same,nausea,[16]; after eluxadoline alone,not reported
same,subjects reporting gastrointestinal AEs,[16]; after eluxadoline alone (1 subject),3%
same,subjects reporting AEs,[16]; after eluxadoline alone (2 subjects),7%
same,subjects reporting nausea,[16]; after eluxadoline combined with cyclosporine (3 subjects),10.0%
same,subjects reporting gastrointestinal AEs,[16]; after eluxadoline combined with probenecid (2 subjects),7%
same,subjects reporting gastrointestinal AEs,[16]; after eluxadoline in combination with cyclosporine (4 subjects),13%
same,subjects reporting AEs,[16]; after eluxadoline in combination with cyclosporine (6 subjects),20%
same,subjects reporting nausea,[16]; after eluxadoline with probenecid (1 subject),3%
same,PK-ADME-model-predicted AUC(0–inf),[17]; eluxadoline alone,17.8 ng·h/mL
same,renal excretion as share of overall elimination,[17]; human,12%
same,clearance,"[17]; human, plasma, 200 mg, biliary clearance (CLbil), without inhibitor, estimated",832 mL/min
same,clearance,"[17]; human, plasma, 200 mg, net tubular secretion clearance CLTS, without inhibitor, estimated",459 mL/min
same,bioavailability,"[17]; human, plasma, po, 200 mg",1.02%
same,FGI (extent of GI absorption/GI permeability),[17]; [30],2.3%
same,hepatic extraction ratio (ERhep),[17]; [30],55.8%
same,intrinsic biliary CLint,"[17]; human, without inhibitor, estimated","9,370 mL/min"
same,CLbil,[17]; [31],296 mL/min
same,Foral,[17]; [31],1.82%
same,reduction of CLTS,[17]; [31],24%
same,reduction of biliary CLint,[17]; [31],71%
same,CLbil,[17]; in the presence of probenecid,750 mL/min
same,Foral,[17]; in the presence of probenecid,1.15%
same,reduction of CLTS,[17]; in the presence of probenecid,52%
same,reduction of biliary CLint,[17]; in the presence of probenecid,21%
same,PK-ADME-model-predicted AUC(0–inf),[17]; with cyclosporine,78.3 ng·h/mL
same,model-predicted CLren,[17]; with cyclosporine,92 mL/min
same,PK-ADME-model-predicted AUC(0–inf),[17]; with probenecid,23.6 ng·h/mL
same,model-predicted CLren,[17]; with probenecid,62 mL/min
same,inhibition of OAT1-mediated transport of probe substrates,[18],did not inhibit
same,inhibition of BSEP-mediated transport of probe substrates,[19],did not inhibit
same,CLtot,[20],18.54 mL/min/kg
same,t½,[20],3.73 h
same,"Cmax, Ratio (%) of Geometric LS Means",[21]; B/A: with cyclosporine 600 mg vs eluxadoline alone,6.18%
same,"AUC(0–inf), Ratio (%) of Geometric LS Means",[21]; B/A: with cyclosporine vs alone,4.25%
same,"Cmax, Ratio (%) of Geometric LS Means",[21]; C/A: with probenecid 500 mg vs eluxadoline alone,1.31%
same,"AUC(0–inf), Ratio (%) of Geometric LS Means",[21]; C/A: with probenecid vs alone,1.48%
same,CL renal,"[21]; both, human, oral, eluxadoline 100 mg plus cyclosporine 600 mg, arithmetic mean (CV)",96.7 mL/min
same,CL renal,"[21]; both, human, oral, eluxadoline 100 mg plus probenecid 500 mg, arithmetic mean (CV)",61.7 mL/min
same,Tmax,"[21]; both, human, plasma, oral, 100 mg",2.1 h
same,AUC(0-inf),"[21]; both, human, plasma, oral, 100 mg, Geometric LS Means, Treatment A, all profiles with estimable elimination rates (N 20)",14.7 ng·h/mL
same,AUC(0-inf),"[21]; both, human, plasma, oral, 100 mg, Geometric LS Means, Treatment A, only subjects with estimable elimination rates for all 3 treatments (N 7)",15.7 ng·h/mL
same,AUC(0-inf),"[21]; both, human, plasma, oral, Geometric LS Means, Treatment B (+ cyclosporine 600 mg), all profiles with estimable elimination rates (N 19)",62.6 ng·h/mL
same,AUC(0-inf),"[21]; both, human, plasma, oral, Geometric LS Means, Treatment B (+ cyclosporine 600 mg), only subjects with estimable elimination rates for all 3 treatments (N 7)",79.9 ng·h/mL
same,AUC(0-inf),"[21]; both, human, plasma, oral, Geometric LS Means, Treatment C (+ probenecid 500 mg), all profiles with estimable elimination rates (N 20)",21.8 ng·h/mL
same,AUC(0-inf),"[21]; both, human, plasma, oral, Geometric LS Means, Treatment C (+ probenecid 500 mg), only subjects with estimable elimination rates for all 3 treatments (N 7)",20.4 ng·h/mL
same,AUC(0-inf),[21]; [32],75.3 ng·h/mL
same,AUC(0-inf),[21]; [33],23 ng·h/mL
same,Cmax,"[21]; both, human, plasma, oral, eluxadoline 100 mg plus cyclosporine 600 mg, arithmetic mean (CV), N = 30",20.9 ng/mL
same,Cmax,"[21]; both, human, plasma, oral, eluxadoline 100 mg plus probenecid 500 mg, arithmetic mean (CV), N = 29",3.6 ng/mL
same,Vd/F,[21]; [32],20700 L
same,Vd/F,[21]; [33],37100 L
same,half-life,"[21]; both, human, plasma, oral, t1/2, eluxadoline 100 mg plus cyclosporine 600 mg, arithmetic mean (CV), n = 19",7.4 h
same,half-life,"[21]; both, human, plasma, oral, t1/2, eluxadoline 100 mg plus probenecid 500 mg, arithmetic mean (CV), n = 20",5.1 h
same,effect on renal clearance (CLren) of eluxadoline,[21]; by cyclosporine,little effect
same,reduction of renal clearance (CLren),[21]; by probenecid,~50%
same,"increase in AUC(0–inf), geometric mean ratio","[21]; coadministered with cyclosporine vs alone, subjects with estimable elimination rates for all 3 treatments",5.1 fold
same,increase in peak exposure (Cmax),[21]; coadministered with cyclosporine vs eluxadoline alone,6.2 fold
same,increase in peak exposure (Cmax),[21]; [34],1.3 fold and 1.31 fold
same,increase in systemic/total exposure [AUC(0–inf)],[21]; [34],1.30 fold and 1.3 fold
same,"CLren, mean (CV%)",[21]; eluxadoline 100 mg alone,116 (20%) mL/min and 116 mL/min
same,"%Fe(0–72), cumulative urinary excretion over 72 hours as fraction of the dose","[21]; eluxadoline 100 mg alone, arithmetic mean (CV)",0.12%
same,"%Fe(0–72), cumulative urinary excretion over 72 hours as fraction of the dose","[21]; eluxadoline 100 mg alone, arithmetic mean (CV), listed as Eluxadoline",0.12 (52) %
same,CL/F,"[21]; eluxadoline 100 mg alone, arithmetic mean (CV), n = 20",7550 (54) L/h
same,"%Fe(0–72), cumulative urinary excretion over 72 hours as fraction of the dose","[21]; eluxadoline 100 mg plus cyclosporine 600 mg, arithmetic mean (CV)",0.46%
same,CL/F,"[21]; eluxadoline 100 mg plus cyclosporine 600 mg, arithmetic mean (CV), n = 19",1943 (69) L/h
same,"%Fe(0–72), cumulative urinary excretion over 72 hours as fraction of the dose","[21]; eluxadoline 100 mg plus probenecid 500 mg, arithmetic mean (CV)",0.08%
same,"%Fe(0–72), cumulative urinary excretion over 72 hours as fraction of the dose","[21]; eluxadoline 100 mg plus probenecid 500 mg, arithmetic mean (CV), listed as Eluxadoline",0.08 (39) %
same,CL/F,"[21]; eluxadoline 100 mg plus probenecid 500 mg, arithmetic mean (CV), n = 20",5645 (53) L/h
same,Tmax,"[21]; eluxadoline 100 mg plus probenecid 500 mg, median (minimum, maximum)","2.5 (0.25, 6.0) hours"
same,"CLren, mean (CV%)",[21]; in the presence of cyclosporine 600 mg,97 (19%) mL/min and 97 mL/min
same,"CLren, mean (CV%)",[21]; in the presence of probenecid 500 mg,62 (25%) mL/min and 62 mL/min
same,fraction of the eluxadoline dose excreted in urine unchanged (%Fe),[21]; with or without cyclosporine and probenecid,less than 1%
same,hepatic drug metabolism,[22],absence of hepatic drug metabolism
same,inhibition of OCT1-mediated transport of probe substrates,[23],did not inhibit
same,CLtot,[24],19.92 mL/min/kg
same,t½,[24],0.75 h
same,fu (unbound fraction of drug in plasma),[25],19%
same,transport by BCRP,[26],not to be transported
same,GI solubility,[27],high
same,transport by OCT1,[28],not to be transported
same,circulating metabolites,[29],no circulating metabolites were detected

# — article PMC4402028 (Journal of Clinical Pharmacology, 2015)
